Patent publication US20220226372A1 (priority 2019, published 2022)
“Also recorded” adds a separate entry of the source. Where two headings read alike, the source gives them in different places.

Columns and labels:
[1] = system: chronic sclerodermatous Graft versus Host Disease
BALB/c mice = test: Copper cytotoxicity assessment in mice; format: in vivo, mouse; conditions: copper 0.2 and 0.5 μg/g, 5 times a week for 5 weeks
Method: To this aim, we injected a lower dose of copper (0.2 and 0.5 μg/g) 5 times a week for 5 weeks to a new series of BALB/c mice. We observed the mice every day, monitored their weight and followed their survival to evaluate copper toxicity.

[2] = system: C57BL6 mice splenic cells; format: cell-based, mouse
HL60 cells [3] = format: cell-based, Human
HL60 cells [4] = format: cell-based, Human; remark: listed apart in the source
HL60 cells [5] = format: cell-based, Human; remark: listed apart in the source
A20 cells [6] = test: A20 cell viability; format: cell-based, mouse; conditions: 48 h; for Effect on A20 viability vs control: H2O2 experiment
Method: (§1) Cells (1×10^5 per well) were seeded in 96-wells round bottom plates (Falcon, Corning, reference: 353077) and incubated for 48 hours with different experimental conditions in an incubator at 37° C. 5% CO2. Two plates were prepared in parallel to measure respectively the H2O2 production and A20 cell viability.
(§2) H2O2 production, GSH production and cell viability were measured using the same protocols as above-described for […].
(§3) Conditions of Treatments and Related Experimentations: 1 Test H2O2— 1 Test GSH • H2O2 or GSH production and cell survival: As2O3 (1 μM) with CuCl2 at 0.5; 1; 2 and 4 μM.

caspase-1 = molecular target: T1, caspase-1 (Homo sapiens, UniProt P29466); conditions: Maier et al., J. Immunol. 2014; cited from earlier work
T1 sequence (P29466 120-404): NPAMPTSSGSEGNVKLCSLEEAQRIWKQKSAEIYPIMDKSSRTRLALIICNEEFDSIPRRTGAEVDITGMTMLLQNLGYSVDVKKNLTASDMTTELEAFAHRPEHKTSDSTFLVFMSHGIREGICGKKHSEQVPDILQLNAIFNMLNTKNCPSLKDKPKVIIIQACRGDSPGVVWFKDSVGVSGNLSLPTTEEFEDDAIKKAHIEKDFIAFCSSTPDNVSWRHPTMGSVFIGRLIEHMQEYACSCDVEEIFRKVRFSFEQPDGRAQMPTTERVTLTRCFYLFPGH

Treg and T17 balance = conditions: rheumatoid arthritis patients; Li et al. 2019; cited from earlier work
A20 cells [7] = test: H2O2 production in A20 cultured cells; format: cell-based, mouse; conditions: 48 h, As2O3 at 1 μM, test 1
Method: as §1, §2, §3

A20 cells [8] = test: GSH production in A20 cultured cells; format: cell-based, mouse; conditions: 48 h, As2O3 at 1 μM, test 1
Method: as §1, §2, §3

MRL/lpr mice = conditions: Bobé et al., Blood 2006; cited from earlier work
[9] = Allogeneic + As2O3 2.5 μg/g, 9 mice
[10] = Allogeneic + As2O3 5 μg/g, 5 mice

## [Cl][Cu][Cl] [CuCl2, copper(II) chloride]
[1]; copper 2.5 or 10 μg/g i.p. 5 times a week, injections stopped at the end of day 4
  Mortality in the copper-treated groups: significant loss of mice
[1]; copper injected only twice a week from day 8 until the end of the 5 weeks
  Mortality in the copper-treated groups: no more copper-treated mice died
BALB/c mice
  Death after 5 weeks: no death
  Mean weights vs control group receiving PBS: similar
[2]; MLR, 48 h, As2O3 1 μM, cation concentration(s) giving a significant decrease of proliferation, test 1
  Cell proliferation: As2O3 + cations vs As2O3: 4 μM (test 1)
[2]; MLR, 48 h, As2O3 1 μM, cation concentration(s) giving a significant decrease of proliferation, tests 1 and 2
  Cell proliferation: As2O3 + cations vs As2O3: 4 μM or 2 and 4
[2]; MLR, 48 h, AsI3 1 μM, test 2
  Proliferation of C57BL6 spleen cells in the presence of AsI3: CuCl2 concentrations with significant decrease: 4 µM
HL60 cells [3]
  Cell survival in presence of AsI3: no effect
HL60 cells [3]; HL60 cells, 48 h (GSH experiment, Example 4), concentration(s) giving a significant difference, tests 1 and 2
  Cell survival: cations vs control: no significant effect; also recorded: Not significant
HL60 cells [3]; HL60 cells, 48 h (H2O2 experiment), cation concentration(s) giving a statistically significant difference, tests 1 and 2
  Cell survival: cations vs control: no real effect; also recorded: Not significant
HL60 cells [3]; HL60 cells, 48 h, As2O3 1 μM (GSH experiment, Example 4), concentration(s) giving a significant difference, tests 1 and 2
  Cell survival: As2O3 + cations vs As2O3: no significant effect; also recorded: Not significant
HL60 cells [3]; HL60 cells, 48 h, As2O3 1 μM (H2O2 experiment), cation concentration(s) giving a statistically significant difference, tests 1 and 2
  Cell survival: As2O3 + cations vs As2O3: no real effect; also recorded: Not significant
HL60 cells [3]; HL60 cells, 48 h, CuCl2 at 1 and 4 μM with As2O3 0.1-10 μM
  Effect on HL60 survival in the presence of As2O3: no additional nor protective effect
HL60 cells [4]
  Effect on the GSH production induced by As2O3: reduce
  GSH Production: cations vs control: no significant effect; also recorded: Not significant
HL60 cells [5]
  Effect of AsI3 on H2O2 production: AsI3 + CuCl2 vs AsI3: significantly increased
  Effect on the H2O2 production induced by As2O3: significantly increases
  H2O2 Production: cations vs control: no significant effect; also recorded: Not significant
A20 cells [6]; As2O3 1 μM (GSH experiment), CuCl2 concentration(s) giving a significant increase of viability, 1 test
  Cell survival: As2O3 + cations vs As2O3: 4 µM

## O=S(=O)([O-])[O-].[Fe+2] [FeSO4]
[2]
  Cell proliferation: As2O3 + cations vs As2O3: does not have a significant effect
HL60 cells [3]
  Cell survival: As2O3 + cations vs As2O3: no significant effect; also recorded: Not significant
  Cell survival: cations vs control: no significant effect; also recorded: Not significant

## [Cl][Mn][Cl] [MnCl2]
HL60 cells [3]
  Cell survival: As2O3 + cations vs As2O3: Not significant
  Cell survival: cations vs control: Not significant
HL60 cells [5]
  H2O2 Production: As2O3 + cations vs As2O3: 1 µM
  H2O2 Production: cations vs control: 1 µM

## O=S(=O)([O-])[O-].[Mn+2] [MnSO4]
HL60 cells [3]
  Cell survival: As2O3 + cations vs As2O3: no real effect; also recorded: Not significant
HL60 cells [5]
  H2O2 Production: As2O3 + cations vs As2O3: 0.25 µM

## [Cl-].[Cl-].[Zn+2] [ZnCl2]
HL60 cells [3]
  Cell survival: As2O3 + cations vs As2O3: no significant and reproducible effect; also recorded: Not significant
  Cell survival: cations vs control: Not significant
HL60 cells [5]
  H2O2 Production: As2O3 + cations vs As2O3: Not significant

## O=S(=O)([O-])[O-].[Zn+2] [ZnSO4]
HL60 cells [3]
  Cell survival: As2O3 + cations vs As2O3: no significant and reproducible effect; also recorded: Not significant

## Arsenic Trioxide [As2O3]
[1]; Allogeneic + As2O3 2.5 μg/g i.p. 5 times a week for 5 weeks, 10 mice at the beginning
  Number of mice at the end (live mice): 9
[1]; Allogeneic + As2O3 2.5 μg/g vs allogeneic
  Ear thickness (vasculitis): reduced
[1]; [9]
  Number of mice with alopecia: 3
  Percentage of mice with alopecia: 33%
[1]; Allogeneic + As2O3 5 μg/g i.p. 5 times a week for 5 weeks, 7 mice at the beginning
  Number of mice at the end (live mice): 5
[1]; Allogeneic + As2O3 5 μg/g vs allogeneic
  Ear thickness (vasculitis): decreased even more until reaching the same values as the ones of the syngeneic group
[1]; [10]
  Number of mice with alopecia: 1
  Percentage of mice with alopecia: 20%
caspase-1
  Inhibition of caspase-1 and the innate immune response: potent inhibitors
Treg and T17 balance
  Treg and T17 balance: improves
[2]
  Cell proliferation in the presence of mitogen: completely inhibits
A20 cells [7]
  Effect on H2O2 production vs control: significantly increased
A20 cells [8]
  Effect on GSH production vs control: significantly increased
HL60 cells [4]
  Effect on GSH production vs control: significantly increases
MRL/lpr mice
  Survival of MRL/lpr mice: significantly prolonged
HL60 cells [5]
  Effect on the production of H2O2: not significant, but it increases at 5 μM
A20 cells [6]; As2O3 at 1 μM, GSH experiment, test 1
  Effect on A20 cells viability vs control: significantly reduced
A20 cells [6]; As2O3 at 1 μM, test 1
  Effect on A20 viability vs control: reduced
A20 cells [6]; As2O3 at 1 μM, test 2
  Effect on A20 viability vs control: significantly reduced
